Where two headings read alike, the source gives them in different places.
Assays:
[1] = tested on: HBV (HepG2.117 cell line, inducibly HBV producing); test: Anti-HBV activity: intracellular HBV DNA by real-time PCR in HepG2.117 cells after 3 days of treatment; assay type: cell-based, hepatitis B virus
In short: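 HepG2.117 cells replicate HBV under Tet-off control, without doxycycline. After induction of replication, cells were treated with serially diluted compound for 3 days, and intracellular HBV DNA was then quantified by real-time PCR with an HBV-specific primer set and probe.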

[2] = in vitro; assay type: cell-based; conditions: human, HepG2 or HepG2.117 cells, ATPlite, mean value
In short: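 Luminescent ATP quantitation served as the viability endpoint following a 3- or 4-day incubation with test compounds.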

[3] = Hepatitis B virus, HepG2.117, 72 h, HepG2.117 cells, intracellular HBV DNA by real-time PCR, 3 days of treatment, mean value; read-out: EC50 (μM, mean value)
[4] = 3-days incubation (not marked with *)
[5] = Hepatitis B virus, HepG2.117, 72 h, HepG2.117 cells, 3 days of treatment, intracellular HBV DNA by real-time PCR; mean value; read-out: EC50 (μM, mean value)
[6] = 3-days incubation (unmarked values)

CNC(=O)c1ccc(-n2c(N[C@H](C)c3ccc(OC)c(F)c3)nc3c(c2=O)C[C@@H](C)N(C(=O)c2ccc(Cl)c(Cl)c2)C3)cc1 (single isomer, unassigned) [Compound C416a]
EC50 [1, 3]: 0.96 µM | CC50 at 3 days [2, 4]: > 50 µM

CNC(=O)c1ccc(-n2c(N[C@H](C)c3ccc(C#N)cc3)nc3c(c2=O)C[C@@H](C)N(C(=O)c2ccc(Cl)c(Cl)c2)C3)cc1 (single isomer, unassigned) [Compound C441a]
EC50 [1, 3]: 0.22 µM | CC50 at 3 days [2, 4]: > 50 µM

CNC(=O)c1ccc(-n2c(N[C@@H](C)c3ccc(C(F)(F)F)cc3)nc3c(c2=O)C[C@@H](C)N(C(=O)c2ccc(Cl)c(Cl)c2)C3)nc1 [Compound C655]
EC50 [1, 3]: 0.08 µM | CC50 at 3 days [2, 4]: 9.1 µM

CC(C)Nc1nc2c(c(=O)n1-c1ccc(S(C)(=O)=O)cc1)CCN(C(=O)c1[nH]c3ccccc3c1Cl)C2 [Compound C133, 7-(3-chloro-1H-indole-2-carbonyl)-3-[4-(methanesulfonyl)phenyl]-2-[(propan-2-yl)amino]-5,6,7,8-tetrahydropyrido[3,4-d]pyrimidin-4(3H)-one]
EC50 [1, 5]: 1.94 µM | CC50 at 3 days [2, 6]: 28.3 µM

CC(C)NC(=O)c1cnc(-n2c(NC(C)C)nc3c(c2=O)C[C@@H](C)N(C(=O)c2ccc(Cl)c(Cl)c2)C3)nc1 [Compound C382]
EC50 [1, 3]: 0.05 µM | CC50 at 3 days [2, 4]: > 50 µM

COc1ccc(CNc2nc3c(c(=O)n2-c2ccccc2OC)CCN(C(=O)c2cc4ccccc4[nH]2)C3)cc1 [Compound C2, 7-(1H-indole-2-carbonyl)-2-((4-methoxybenzyl)amino)-3-(2-methoxyphenyl)-5,6,7,8-tetrahydropyrido[3,4-d]pyrimidin-4(3H)-one]
EC50 [1, 5]: 1.75 µM | CC50 at 4 days ([2]; 4-days incubation (values marked with *)): > 50 µM

CNC(=O)c1ccc(-n2c(N[C@@H](C)c3ccc(F)c(F)c3)nc3c(c2=O)C[C@@H](C)N(C(=O)c2ccc(Cl)c(Cl)c2)C3)cc1 (single isomer, unassigned) [Compound C417b]
EC50 [1, 3]: 0.06 µM | CC50 at 3 days [2, 4]: 7.3 µM

CNC(=O)c1ccc(-n2c(OC(C)C)nc3c(c2=O)C[C@@H](C)N(C(=O)c2ccc(Cl)c(Cl)c2)C3)cc1 [Compound C289, 4-[(6R)-7-(3,4-dichlorobenzoyl)-6-methyl-4-oxo-2-[(propan-2-yl)oxy]-5,6,7,8-tetrahydropyrido[3,4-d]pyrimidin-3(4H)-yl]-N-methylbenzamide]
EC50 [1, 5]: 0.08 µM | CC50 at 3 days [2, 6]: > 50 µM

CNC(=O)c1ccc(-n2c(NC(C)C)nc3c(c2=O)C[C@@H](C)N(C(=O)c2nn(C)c4ccccc24)C3)cc1 [Compound C477]
EC50 [1, 3]: 10.2 µM | CC50 at 3 days [2, 4]: > 50 µM

CC(C)Nc1nc2c(c(=O)n1-c1ccc(-c3cn[nH]c3)cc1)CCN(C(=O)c1ccc(Cl)c(Cl)c1)C2 [Compound C186, 7-(3,4-dichlorobenzoyl)-2-[(propan-2-yl)amino]-3-[4-(1H-pyrazol-4-yl)phenyl]-5,6,7,8-tetrahydropyrido[3,4-d]pyrimidin-4(3H)-one]
EC50 [1, 5]: 0.51 µM | CC50 at 3 days [2, 6]: > 50 µM

COc1ccc(CNc2nc3c(c(=O)n2-c2ccc4ncoc4c2)CCN(C(=O)c2ccc(Cl)c(Cl)c2)C3)cc1 [Compound C131, 3-(1,3-benzoxazol-6-yl)-7-(3,4-dichlorobenzoyl)-2-{[(4-methoxyphenyl)methyl]amino}-5,6,7,8-tetrahydropyrido[3,4-d]pyrimidin-4(3H)-one]
EC50 [1, 5]: 0.53 µM | CC50 at 3 days [2, 6]: > 50 µM

COc1ccccc1-n1c(N)nc2c(c1=O)CCN(C(=O)c1ccc(Cl)c(Cl)c1)C2 [Compound C57, 2-amino-7-(3,4-dichlorobenzoyl)-3-(2-methoxyphenyl)-5,6,7,8-tetrahydropyrido[3,4-d]pyrimidin-4(3H)-one]
EC50 [1, 5]: 0.91 µM | CC50 at 3 days [2, 6]: > 50 µM

CNC(=O)c1ccc(-n2c(NCc3ccc(-n4cncn4)cc3)nc3c(c2=O)C[C@@H](C)N(C(=O)c2ccc(Cl)c(Cl)c2)C3)cc1 [Compound C555]
EC50 [1, 3]: 1.33 µM | CC50 at 3 days [2, 4]: > 50 µM

CC(C)Nc1nc2c(c(=O)n1-c1ccc(-c3nnc[nH]3)cc1)C[C@@H](C)N(C(=O)c1ccc(Cl)c(Cl)c1)C2 [Compound C610]
EC50 [1, 3]: 0.17 µM | CC50 at 3 days [2, 4]: > 50 µM

CNC(=O)c1ccc(-n2c(NC(C)c3ccnn3C)nc3c(c2=O)C[C@@H](C)N(C(=O)c2ccc(Cl)c(Cl)c2)C3)cc1 (stereo partly shown) [Compound C372]
EC50 [1, 5]: 11.7 µM | CC50 at 3 days [2, 6]: > 50 µM

CNC(=O)c1ccc(-n2c(N(C)Cc3ccc4cnccc4c3)nc3c(c2=O)C[C@@H](C)N(C(=O)c2ccc(Cl)c(Cl)c2)C3)cc1 [Compound C544]
EC50 [1, 3]: 0.6 µM | CC50 at 3 days [2, 4]: 26.7 µM

CNC(=O)c1ccc(-n2c(N(C)Cc3cnn(-c4ccccc4)n3)nc3c(c2=O)C[C@@H](C)N(C(=O)c2ccc(Cl)c(Cl)c2)C3)cc1 [Compound C603]
EC50 [1, 3]: 0.21 µM | CC50 at 3 days [2, 4]: > 50 µM

CNC(=O)c1ccc(-n2c(N[C@H](C)c3ccc(C(F)(F)F)c(Cl)c3)nc3c(c2=O)C[C@@H](C)N(C(=O)c2ccc(Cl)c(Cl)c2)C3)cc1 (single isomer, unassigned) [Compound C664a]
EC50 [1, 3]: 0.13 µM | CC50 at 3 days [2, 4]: 6.7 µM

CNC(=O)c1ccc(-n2c(NC(C)C)nc3c(c2=O)C[C@@H](C)N(C(=O)c2cc4c(Br)c(F)ccc4[nH]2)C3)cc1 [Compound C572]
EC50 [1, 3]: 0.01 µM | CC50 at 3 days [2, 4]: 14.6 µM

CNC(=O)c1ccc(-n2c(N[C@H](C)c3nccs3)nc3c(c2=O)C[C@@H](C)N(C(=O)c2ccc(Cl)c(Cl)c2)C3)cc1 (single isomer, unassigned) [Compound C434a]
EC50 [1, 3]: 0.99 µM | CC50 at 3 days [2, 4]: > 50 µM

CNC(=O)c1ccc(-n2c(NC(C)C)nc3c(c2=O)C[C@@H](C)N(C(=O)c2cn4ccccc4n2)C3)cc1 [Compound C497]
EC50 [1, 3]: 11.8 µM | CC50 at 3 days [2, 4]: > 50 µM

COc1ccc(CNc2nc3c(c(=O)[nH]2)CCN(C(=O)c2ccc(Br)c(Br)c2)C3)cc1 [Compound C80, 7-(3,4-dibromobenzoyl)-2-{[(4-methoxyphenyl)methyl]amino}-5,6,7,8-tetrahydropyrido[3,4-d]pyrimidin-4(3H)-one]
EC50 [1, 5]: 2.02 µM | CC50 at 3 days [2, 6]: > 50 µM

CNC(=O)c1ccc(-n2c(N[C@@H](C)c3cnccn3)nc3c(c2=O)C[C@@H](C)N(C(=O)c2ccc(Cl)c(C(F)(F)F)c2)C3)cc1 (single isomer, unassigned) [Compound C665b]
EC50 [1, 3]: 0.65 µM | CC50 at 3 days [2, 4]: > 50 µM

CNC(=O)c1ccc(-n2c(NCC34C5C6C7C5C3C7C64)nc3c(c2=O)C[C@@H](C)N(C(=O)c2ccc(Cl)c(Cl)c2)C3)cc1 (stereo partly shown) [Compound C451]
EC50 [1, 3]: 0.41 µM | CC50 at 3 days [2, 4]: > 50 µM

CC(C)Nc1nc2c(c(=O)n1-c1ccc(S(C)(=O)=O)cc1)CCN(C(=O)c1cc(Cl)c(Cl)s1)C2 [Compound C181, 7-(4,5-dichlorothiophene-2-carbonyl)-3-[4-(methanesulfonyl)phenyl]-2-[(propan-2-yl)amino]-5,6,7,8-tetrahydropyrido[3,4-d]pyrimidin-4(3H)-one]
EC50 [1, 5]: 2.56 µM | CC50 at 3 days [2, 6]: > 50 µM

CNC(=O)c1ccc(-n2c(N[C@@H](C)c3ccc(F)c(OC)c3)nc3c(c2=O)C[C@@H](C)N(C(=O)c2ccc(Cl)c(Cl)c2)C3)cc1 (single isomer, unassigned) [Compound C435b]
EC50 [1, 3]: 1.29 µM | CC50 at 3 days [2, 4]: 45.8 µM

CNC(=O)c1ccc(-n2c(N[C@@H](C)C3CC3)nc3c(c2=O)C[C@@H](C)N(C(=O)c2ccc(Cl)c(Cl)c2)C3)c(Cl)c1 (single isomer, unassigned) [Compound C387a]
EC50 [1, 3]: 0.05 µM | CC50 at 3 days [2, 4]: > 50 µM

CNC(=O)c1ccc(-n2c(N3CC4CC3C4)nc3c(c2=O)C[C@@H](C)N(C(=O)c2ccc(Cl)c(Cl)c2)C3)cc1 [Compound C408]
EC50 [1, 3]: 0.05 µM | CC50 at 3 days [2, 4]: > 50 µM

COc1ccc(CNc2nc3c(c(=O)n2-c2ccn[nH]2)CCN(C(=O)c2ccc(Cl)c(Cl)c2)C3)cc1 [Compound C107, 7-(3,4-dichlorobenzoyl)-2-{[(4-methoxyphenyl)methyl]amino}-3-(1H-pyrazol-5-yl)-5,6,7,8-tetrahydropyrido[3,4-d]pyrimidin-4(3H)-one]
EC50 [1, 5]: 1.78 µM | CC50 at 3 days [2, 6]: 22.6 µM

CNC(=O)c1ccc(-n2c(N[C@@H](C)c3ccc(C)cc3)nc3c(c2=O)C[C@@H](C)N(C(=O)c2ccc(Cl)c(Cl)c2)C3)cc1 [Compound C431]
EC50 [1, 3]: 0.03 µM | CC50 at 3 days [2, 4]: 20.6 µM

COc1ccc(CNc2nc3c(c(=O)[nH]2)CCN(C(=O)c2ccc(Br)c(C)c2)C3)cc1 [Compound C104, 7-(4-bromo-3-methylbenzoyl)-2-{[(4-methoxyphenyl)methyl]amino}-5,6,7,8-tetrahydropyrido[3,4-d]pyrimidin-4(3H)-one]
EC50 [1, 5]: 1.8 µM | CC50 at 3 days [2, 6]: 24.1 µM

CNC(=O)c1ccc(-n2c(N[C@@H](C)c3ccccc3F)nc3c(c2=O)C[C@@H](C)N(C(=O)c2ccc(Cl)c(Cl)c2)C3)cc1 [Compound C316, 4-[(6R)-7-(3,4-dichlorobenzoyl)-2-{[(1S)-1-(2-fluorophenyl)ethyl]amino}-6-methyl-4-oxo-5,6,7,8-tetrahydropyrido[3,4-d]pyrimidin-3(4H)-yl]-N-methylbenzamide]
EC50 [1, 5]: 0.13 µM | CC50 at 3 days [2, 6]: 27.8 µM

CC(C)Nc1nc2c(c(=O)n1-c1ccc(S(=O)(=O)Nc3ccccn3)cc1)C[C@@H](C)N(C(=O)c1ccc(Cl)c(Cl)c1)C2 [Compound C400]
EC50 [1, 3]: 1.15 µM | CC50 at 3 days [2, 4]: > 50 µM

CC(C)Nc1nc2c(c(=O)n1-c1ccc(S(C)(=O)=O)cc1)CCN(C(=O)c1ccn3ncnc3c1)C2 [Compound C365]
EC50 [1, 5]: > 10 µM | CC50 at 3 days [2, 6]: > 50 µM

COc1ccc(C(C)Nc2nc3c(c(=O)n2-c2ccc(NC(C)=O)cc2)C[C@@H](C)N(C(=O)c2ccc(Cl)c(Cl)c2)C3)cc1 (stereo partly shown) [Compound C410]
EC50 [1, 3]: 0.13 µM | CC50 at 3 days [2, 4]: 32.6 µM
